The results in this text go back to patent US11845984B2, “Methods for obtaining and correcting biological sequence information” (CYGNUS BIOSCIENCES (BEIJING) CO., LTD., priority 2015, dated 2023).

A short description of the data set: Spectral (optical) properties of fluorophores. It counts as physicochemical. Here is the method: Although Me-FAM has similar maximum emission wavelength as TG, the extinction coefficient and quantum yield of Me-FAM are much lower (FIG. 8). At the same time, the broad emission spectrum of Me-FAM greatly overlapped with other fluorophores like Me-HCF, which makes it inapplicable for multi-color sequencing application in future. Instead, the strong fluorescence and narrower spectrum of TG will tackle the problem more easily.
First, the spectrums of TG-dA4P were measured at room temperature. For emission measurement: set excitation wavelength at 460 nm, scan 480 to 600 nm for emission; for absorption measurement: scan 310 to 550 nm. Then CIP and PDE were added and spectrum was recorded sequentially at the same condition.

On to `Cc1ccccc1-c1c2ccc(=O)cc-2oc2cc(O)ccc12` [TG, Tokyo Green], for which the Emission max came to 513 nm, the Excitation max came to 490 nm, the Extinction coefficient is on record as 8 × 10^4 and the “Quantum Yield” value came to 82%. The same compound returned a fluorescence quantum yield (at 490 nm) of 0.82.
